Columns and labels:
[1] = tested on: DREADDs (M3D, M4D, M3D-Gs, M3D-GPR183/ICL3, M3D-GPR132/ICL3); experiment: NanoBiT-G-protein dissociation assay, DREADD panel with titrated CNO; format: cell-based, human; details: all of the DREADDs, HEK293 cells, read-out: EC50 values of CNO for each primary-coupling G-protein
Method: (§1) Plasmid transfection was performed in a 6-well plate with a mixture of 100 ng Gα-Lg-encoding plasmid, 500 ng Sm-Gβ-encoding plasmid, 500 ng untagged Gγ2-encoding plasmid, 200 ng GPCR-encoding plasmid with or without 100 ng RIC8-encoding plasmid (per well, hereafter). Unless otherwise stated, the combination of following plasmid mixtures was used: Gαs-Lg, Sm-Gβ1, Gγ2 and RIC8B for NanoBiT-Gs; Gαi1-Lg, Sm-Gβ5 and Gγ2 for NanoBiT-Gi1; Gαi2-Lg, Sm-Gβ3 and Gγ2 for NanoBiT-Gi2; Gαi3-Lg, Sm-Gβ3 and Gγ2 for NanoBiT-Gi3; Gαo-Lg, Sm-Gβ1 and Gγ2 for NanoBiT-Go; Gαq-Lg, Sm-Gβ1, Gγ2 and RIC8A for NanoBiT-Gq; Gα12-Lg, Sm-Gβ1, Gγ2 and RIC8A for NanoBiT-G12; Gα13-Lg, Sm-Gβ1, Gγ2 and RIC8A for NanoBiT-G13. After 1-day culture, the transfected cells were harvested with 1 mL of 0.53 mM EDTA-containing Dulbecco's PBS (D-PBS), followed by addition of 2 mL the HEPES-containing HBSS. The cells were pelleted by centrifugation at 190 g for 5 min and resuspended in 2 mL of the 0.01% BSA- and 5 mM HEPES (pH 7.4)-containing HBSS (assay buffer). […] After 2-h incubation with coelenterazine at room temperature, background luminescent signals were measured using a luminescent microplate reader (SpectraMax L, Molecular Devices). […] Luminescent signals were measured 3-5 min after ligand addition and divided by the initial count. […]

M3D-GPR132/ICL3 [2] = target: T1, M3D-GPR132/ICL3 (Homo sapiens, UniProt P20309, A239G/DEL260-297/DEL301-447/DEL453-484/K449L/K485Q/T451A/Y149C); experiment: TGFα shedding assay in ΔGq HEK293 cells, M3D-GPR132/ICL3; format: cell-based; details: 10 μM CNO
T1 construct: expressed in transfected cells; host or cells: parental HEK293 (NanoBiT-G-protein assay); ΔGq HEK293 (TGFα shedding assay)
T1 sequence (P20309 with tags, fused parts or gaps Y149C/A239G/DEL260-297/DEL301-447/K449L/T451A/DEL453-484/K485Q): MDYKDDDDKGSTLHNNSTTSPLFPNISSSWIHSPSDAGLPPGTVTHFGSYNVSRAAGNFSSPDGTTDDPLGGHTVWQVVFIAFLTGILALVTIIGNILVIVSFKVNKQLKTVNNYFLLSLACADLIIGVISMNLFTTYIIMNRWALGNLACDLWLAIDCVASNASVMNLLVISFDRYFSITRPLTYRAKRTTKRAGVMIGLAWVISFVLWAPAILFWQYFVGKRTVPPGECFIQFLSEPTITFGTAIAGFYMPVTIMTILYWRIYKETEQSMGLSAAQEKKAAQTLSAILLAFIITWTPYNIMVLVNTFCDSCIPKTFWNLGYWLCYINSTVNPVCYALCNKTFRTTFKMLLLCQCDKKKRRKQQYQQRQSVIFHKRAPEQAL
Method: (§2) The TGFα shedding assay was performed as described previously (Inoue et al., 2012) with minor modifications. Plasmid transfection was performed in a 6-well plate with a mixture of 500 ng AP-TGFα-encoding plasmid, 200 ng GPCR-encoding plasmid with or without 100 ng Gα-encoding plasmid (per well, hereafter). After 1-day culture, the transfected cells were harvested by trypsinization, pelleted by centrifugation at 190 g for 5 min and washed once with Hank's Balanced Salt Solution (HBSS) containing 5 mM HEPES (pH 7.4). After centrifugation, the cells were resuspended in 6 ml of the HEPES-containing HBSS. […] The cell suspension was seeded in a 96-well culture plate (cell plate) at a volume of 90 μl (per well hereafter) and incubated for 30 min in a 5% CO2 incubator at 37° C. The cells were treated with a GPCR ligand (10×, diluted in HBSS containing 5 mM HEPES (pH 7.4) and 0.01% (w/v) bovine serum albumin (BSA, fatty acid-free and protease-free grade; Serva)). After spinning the cell plates, conditioned media (80 μl) was transferred to an empty 96-well plate (conditioned media (CM) plate). […] Absorbance at 405 nm (Ab405) of the plates was measured, using a microplate reader (SpectraMax 340 PC384, Molecular Devices), before and after 1-h or 2-h incubation at room temperature. Ligand-induced AP-TGFα release was calculated as described previously. […]

M3D-GPR183/ICL3 [3] = target: T2, M3D-GPR183/ICL3 (Homo sapiens, UniProt P20309, A239G/DEL264-389/DEL400-485/E393L/E394T/G397S/K260R/L396K/M398G/R261T/T262A/V391N/Y149C); experiment: NanoBiT-G-protein dissociation assay, M3D-GPR183/ICL3; format: cell-based
T2 construct: expressed in transfected cells; host or cells: parental HEK293 (NanoBiT-G-protein assay); ΔGq HEK293 (TGFα shedding assay)
T2 sequence (P20309 with tags, fused parts or gaps Y149C/A239G/K260R/R261T/T262A/DEL264-389/V391N/E393L/E394T/L396K/G397S/M398G/DEL400-485): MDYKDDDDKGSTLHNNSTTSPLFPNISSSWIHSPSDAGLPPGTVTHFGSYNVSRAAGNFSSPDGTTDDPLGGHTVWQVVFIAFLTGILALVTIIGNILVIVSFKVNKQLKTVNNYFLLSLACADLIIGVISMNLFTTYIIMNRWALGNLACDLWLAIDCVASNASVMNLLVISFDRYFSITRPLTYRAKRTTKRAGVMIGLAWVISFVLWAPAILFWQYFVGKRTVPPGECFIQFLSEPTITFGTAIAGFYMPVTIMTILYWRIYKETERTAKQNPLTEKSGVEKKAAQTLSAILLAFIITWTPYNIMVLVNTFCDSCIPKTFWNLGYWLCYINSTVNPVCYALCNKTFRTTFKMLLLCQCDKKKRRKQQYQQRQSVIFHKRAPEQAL
Method: (§3) Plasmid transfection was performed in a 6-well plate with a mixture of 100 ng Gα-Lg-encoding plasmid, 500 ng Sm-Gβ-encoding plasmid, 500 ng untagged Gγ2-encoding plasmid, 200 ng GPCR-encoding plasmid with or without 100 ng RIC8-encoding plasmid (per well, hereafter). Unless otherwise stated, the combination of following plasmid mixtures was used: Gαs-Lg, Sm-Gβ1, Gγ2 and RIC8B for NanoBiT-Gs; Gαi1-Lg, Sm-Gβ5 and Gγ2 for NanoBiT-Gi1; Gαi2-Lg, Sm-Gβ3 and Gγ2 for NanoBiT-Gi2; Gαi3-Lg, Sm-Gβ3 and Gγ2 for NanoBiT-Gi3; Gαo-Lg, Sm-Gβ1 and Gγ2 for NanoBiT-Go; Gαq-Lg, Sm-Gβ1, Gγ2 and RIC8A for NanoBiT-Gq; Gα12-Lg, Sm-Gβ1, Gγ2 and RIC8A for NanoBiT-G12; Gα13-Lg, Sm-Gβ1, Gγ2 and RIC8A for NanoBiT-G13. After 1-day culture, the transfected cells were harvested with 1 mL of 0.53 mM EDTA-containing Dulbecco's PBS (D-PBS), followed by addition of 2 mL the HEPES-containing HBSS. The cells were pelleted by centrifugation at 190 g for 5 min and resuspended in 2 mL of the 0.01% BSA- and 5 mM HEPES (pH 7.4)-containing HBSS (assay buffer). The cell suspension was seeded in a 96-well culture white plate (Greiner Bio-One) at a volume of 80 μl (per well hereafter) and loaded with 20 μl of 50 μM coelenterazine (Carbosynth) solution diluted in the assay buffer. After 2-h incubation with coelenterazine at room temperature, background luminescent signals were measured using a luminescent microplate reader (SpectraMax L, Molecular Devices). The inventors note that incubation time with coelenterazine can be shortened, but an effect of baseline drift should be taken into account (FIG. 14C-E). Test compound (6×, diluted in the assay buffer) was manually added to the cells (20 μl). Luminescent signals were measured 3-5 min after ligand addition and divided by the initial count. The ligand-induced signal ratio was normalized to that treated with vehicle. The consequent fold-change values were fitted to a four-parameter sigmoidal concentration-response described above.

M3D-LTB4R2/ICL3 = experiment: NanoBiT-G-protein dissociation assay, M3D-LTB4R2/ICL3; format: cell-based, human; details: 10 μM CNO; parental HEK293 cells
Method: as §1

M3D-NMBR/ICL3 = experiment: NanoBiT-G-protein dissociation assay, M3D-NMBR/ICL3; format: cell-based, human; details: 10 μM CNO; parental HEK293 cells
Method: as §1

M3D-GPR132/ICL3 [4] = target: T1, M3D-GPR132/ICL3; experiment: NanoBiT-G-protein dissociation assay, M3D-GPR132/ICL3; format: cell-based
Method: as §3

M3D-GPR183/ICL3 [5] = target: T2, M3D-GPR183/ICL3; experiment: TGFα shedding assay in ΔGq HEK293 cells, M3D-GPR183/ICL3; format: cell-based; details: 10 μM CNO
Method: as §2

M3D-P2RY10/ICL3 = experiment: NanoBiT-G-protein dissociation assay, M3D-P2RY10/ICL3; format: cell-based, human; details: 10 μM CNO; parental HEK293 cells
Method: as §1

CNR1 = CNR1 (Homo sapiens, UniProt P21554); details: HEK293 cells expressing CNR1
Sequence of CNR1 (P21554 whole entry): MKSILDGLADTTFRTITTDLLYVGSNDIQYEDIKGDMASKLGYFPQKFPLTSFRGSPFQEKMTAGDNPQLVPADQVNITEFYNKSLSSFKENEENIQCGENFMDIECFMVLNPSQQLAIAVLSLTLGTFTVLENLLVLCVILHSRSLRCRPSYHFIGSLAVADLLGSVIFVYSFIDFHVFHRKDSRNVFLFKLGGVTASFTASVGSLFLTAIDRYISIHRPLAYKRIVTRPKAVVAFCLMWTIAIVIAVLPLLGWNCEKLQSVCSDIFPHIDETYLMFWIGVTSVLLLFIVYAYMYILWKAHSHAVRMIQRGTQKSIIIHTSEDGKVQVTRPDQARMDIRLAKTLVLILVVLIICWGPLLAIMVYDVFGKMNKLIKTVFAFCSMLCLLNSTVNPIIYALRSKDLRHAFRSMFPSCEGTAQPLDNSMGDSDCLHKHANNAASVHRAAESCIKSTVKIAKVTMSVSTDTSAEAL
Method: (§5) The transfected cells were harvested, seeded in a white 96-well plate and loaded with 10 μM CTZ in the same manner described in the NanoBiT-G-protein dissociation assay. After measuring an initial luminescent signal, test compounds were added to the cells. Then, 3-5 min later, luminescent signals were measured and fold-change values were plotted as described above.

RhoA [6] = experiment: Active RhoA pulldown assay in HN12 cells; format: cell-based; details: 10 μM CP-55940, 1 μM Ang II, 5 min
Method: (§4) HN12 cells and Cal27 cells were cultured to 50% confluency, and then serum starved overnight. To induce RhoA activation, cells were treated with 5 μM LPA, 1 μM Ang II, or 10 μM CP-55940 for 5 min. Active RhoA levels were measured using the RhoA Pull-Down Activation Assay Biochem Kit (bead pull-down format; Cytoskeleton) following the manufacturer instruction using a modified lysis buffer (50 mM Tris-HCl (pH 7.2), 500 mM NaCl, 10 mM MgCl2, 0.1% SDS, 1% NP-40). Briefly, after stimulation, samples were lysed and protein concentrations were quantified using DC Protein Assay (BioRad). Samples were adjusted to the same concentration with lysis buffer and 500 μg of each protein lysate was added to 15 μL GST-tagged Rhotekin-RBD bound to Sepharose beads. Samples were incubated while rocking at 4° C. for 1.5 h. Beads were then washed, eluted in Laemmli sample buffer, and analyzed by western blot using a mouse monoclonal anti-RhoA antibody (Cytoskeleton).

RhoA [7] = experiment: Active RhoA pulldown assay in Cal27 cells; format: cell-based; details: 10 μM CP-55940, 1 μM Ang II, 5 min
Method: as §4

RhoA [8] = experiment: NanoBiT-RhoA assay in MDA-MB-231 cells (endogenously expressed GPCRs); format: cell-based, human; details: thrombin 1000 U L^−1
Method: as §5

RhoA [9] = experiment: NanoBiT-RhoA assay in PC-3 cells (endogenously expressed GPCRs); format: cell-based, human; details: thrombin 1000 U L^−1
Method: as §5

[10] = 10 μM CNO, parental HEK293 cells
[11] = titrated CNO, NanoBiT-Gs, Go, Gq, G12 compared

With `C[N+]1([O-])CCN(C2=Nc3cc(Cl)ccc3Nc3ccccc32)CC1` [CNO, clozapine-N-oxide] as the compound, how does the EC50 [1] read?
Its EC50 is 100 to 1000 nM.

And the “G12 signaling (TGFα shedding response)” value (M3D-GPR132/ICL3 [2])?
The value was “significant G12 signaling”.

And the NanoBiT-G13 dissociation signal (M3D-GPR183/ICL3 [3]; 10 μM CNO)?
The NanoBiT-G13 dissociation signal was “lack of G13 activation”.

And the “G12 and Go coupling (NanoBiT-G12 / NanoBiT-Go screening)” value (M3D-GPR183/ICL3 [3]; [10])?
Its value is “coupled to G12 and not to Go”.

And the G12 dissociation signal (M3D-GPR183/ICL3 [3]; [11])?
The G12 dissociation signal was “robust G12 dissociation signal”.

What about the “G12 and Go coupling (NanoBiT-G12 / NanoBiT-Go screening)” value (M3D-LTB4R2/ICL3) of the same compound?
Its value is “induced both G12 and Go coupling with a higher Go dissociation signal”.

And the “G12 and Go coupling (NanoBiT-G12 / NanoBiT-Go screening)” value (M3D-NMBR/ICL3)?
The value was “coupled to G12 and not to Go”.

And the NanoBiT-G13 dissociation signal (M3D-GPR132/ICL3 [4]; 10 μM CNO)?
The NanoBiT-G13 dissociation signal was “lack of G13 activation”.

And the “G12 and Go coupling (NanoBiT-G12 / NanoBiT-Go screening)” value (M3D-GPR132/ICL3 [4]; [10])?
Its value is “coupled to G12 and not to Go”.

And the G12 dissociation signal (M3D-GPR132/ICL3 [4]; [11])?
The G12 dissociation signal was “robust G12 dissociation signal”.

And the “G12 signaling (TGFα shedding response)” value (M3D-GPR183/ICL3 [5])?
The value was “significant G12 signaling”.

What about the “G12 and Go coupling (NanoBiT-G12 / NanoBiT-Go screening)” value (M3D-P2RY10/ICL3) of the same compound?
The value was “coupled to G12 and not to Go”.

How did the RhoA activation (CNR1) turn out when `CCCCCCC(C)(C)c1ccc([C@@H]2C[C@H](O)CC[C@H]2CCCO)c(O)c1` [CP-55940] was run?
Its RhoA activation is “RhoA activation occurred”.

What about the “RhoA activation (GTP-bound RhoA pulldown)” value (RhoA [6]) of the same compound?
Its value is “induced activation of RhoA”.

What about the “RhoA activation (GTP-bound RhoA pulldown)” value (RhoA [7]) of the same compound?
The value was “induced activation of RhoA”.

Which results are given for “angiotensin II (DRVYIHPF; Angiotensin-2; UniProt P01019 25-32, looked up) [Ang II, endogenous ligand of AGTR1]”?
RhoA activation (GTP-bound RhoA pulldown) (RhoA [6]): induced activation of RhoA; RhoA activation (GTP-bound RhoA pulldown) (RhoA [7]): induced activation of RhoA

How did the RhoA activation (RhoA [8]) turn out when thrombin was run?
Its RhoA activation is “activated RhoA”.

What about the RhoA activation (RhoA [9]) of the same compound?
The RhoA activation was “activated RhoA”.
